Experimental data from ChEMBL document CHEMBL1201862, “PubChem BioAssay data set” (2004).
Calls of active or inactive are those of the source.

What was measured:
Assay type in all cases: functional
[1] = molecular target: T1, Caspase-3 (Homo sapiens, UniProt P42574);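 note: Dose-response selectivity test against caspase-3 for candidate inhibitors of sentrin-specific proteases (SENPs)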
T1 sequence (P42574 whole entry): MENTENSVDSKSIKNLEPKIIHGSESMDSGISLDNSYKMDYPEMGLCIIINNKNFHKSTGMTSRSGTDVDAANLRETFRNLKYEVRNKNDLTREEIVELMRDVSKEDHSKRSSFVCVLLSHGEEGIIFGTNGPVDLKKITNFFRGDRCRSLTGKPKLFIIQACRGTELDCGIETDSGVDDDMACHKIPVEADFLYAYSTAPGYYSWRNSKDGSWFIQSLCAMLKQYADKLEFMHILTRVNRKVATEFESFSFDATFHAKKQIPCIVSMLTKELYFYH

[2] = molecular target: T2, Sentrin-specific protease 7 (Homo sapiens, UniProt Q9BQF6);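 note: Luminescence-based dose-response confirmation of ultra-high-throughput screening hits, measuring inhibition of SENP7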
T2 sequence (Q9BQF6 whole entry): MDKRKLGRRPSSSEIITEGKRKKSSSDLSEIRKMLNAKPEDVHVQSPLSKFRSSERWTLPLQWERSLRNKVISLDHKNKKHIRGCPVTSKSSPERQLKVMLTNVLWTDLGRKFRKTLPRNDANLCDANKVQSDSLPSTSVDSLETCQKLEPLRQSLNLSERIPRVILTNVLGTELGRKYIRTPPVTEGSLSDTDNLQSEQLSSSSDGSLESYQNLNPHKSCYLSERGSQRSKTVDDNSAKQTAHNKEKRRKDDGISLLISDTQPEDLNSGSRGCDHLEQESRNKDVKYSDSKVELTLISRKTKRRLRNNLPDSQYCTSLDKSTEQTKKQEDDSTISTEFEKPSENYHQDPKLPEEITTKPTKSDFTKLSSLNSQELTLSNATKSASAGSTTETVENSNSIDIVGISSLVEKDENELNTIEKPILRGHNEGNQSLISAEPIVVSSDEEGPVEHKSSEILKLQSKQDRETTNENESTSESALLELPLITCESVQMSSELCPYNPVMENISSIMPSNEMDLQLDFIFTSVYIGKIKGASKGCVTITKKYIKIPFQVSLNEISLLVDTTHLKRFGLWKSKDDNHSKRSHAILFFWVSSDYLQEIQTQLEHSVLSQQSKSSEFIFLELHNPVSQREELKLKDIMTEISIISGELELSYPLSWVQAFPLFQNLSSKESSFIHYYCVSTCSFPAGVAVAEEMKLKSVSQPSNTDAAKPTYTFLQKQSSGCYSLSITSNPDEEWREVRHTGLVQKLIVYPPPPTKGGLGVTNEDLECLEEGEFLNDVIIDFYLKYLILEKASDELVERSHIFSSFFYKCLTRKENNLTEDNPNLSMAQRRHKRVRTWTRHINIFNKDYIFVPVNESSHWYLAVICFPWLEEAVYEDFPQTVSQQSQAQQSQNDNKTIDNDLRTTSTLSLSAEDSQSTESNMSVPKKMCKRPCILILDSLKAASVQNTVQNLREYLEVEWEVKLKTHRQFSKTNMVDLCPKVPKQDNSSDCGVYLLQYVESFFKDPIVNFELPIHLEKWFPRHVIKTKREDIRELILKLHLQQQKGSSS

[3] = molecular target: T3, Sentrin-specific protease 8 (Homo sapiens, UniProt Q96LD8);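 note: luminescence read-out of SENP8 inhibition, dose-response confirmation following an ultra-high-throughput screen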
T3 sequence (Q96LD8 whole entry): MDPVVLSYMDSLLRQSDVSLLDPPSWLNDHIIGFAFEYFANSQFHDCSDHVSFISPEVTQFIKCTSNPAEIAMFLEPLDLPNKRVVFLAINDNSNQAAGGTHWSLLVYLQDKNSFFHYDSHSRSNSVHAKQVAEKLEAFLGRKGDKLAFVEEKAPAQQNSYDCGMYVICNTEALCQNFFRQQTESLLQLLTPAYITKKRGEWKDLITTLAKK

[4] = molecular target: T4, Neuropeptide Y receptor type 2 (Homo sapiens, UniProt P49146); experiment: Fluorescence-based counterscreen for agonists of NPY-Y1: cell-based high-throughput dose response assay for agonists of NPY-Y2.
T4 sequence (P49146 whole entry): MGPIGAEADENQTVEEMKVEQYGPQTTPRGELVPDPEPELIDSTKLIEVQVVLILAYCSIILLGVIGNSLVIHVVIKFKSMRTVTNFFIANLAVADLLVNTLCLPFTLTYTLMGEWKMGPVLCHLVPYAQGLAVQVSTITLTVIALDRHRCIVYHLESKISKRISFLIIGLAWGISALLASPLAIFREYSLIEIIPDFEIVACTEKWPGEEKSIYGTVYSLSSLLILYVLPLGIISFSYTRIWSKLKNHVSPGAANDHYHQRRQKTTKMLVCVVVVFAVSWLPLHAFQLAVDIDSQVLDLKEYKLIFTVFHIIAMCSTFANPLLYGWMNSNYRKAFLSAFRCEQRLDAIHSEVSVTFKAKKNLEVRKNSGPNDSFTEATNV

[5] = MIN6 cell viability loss – mouse insulinoma, cytotoxicity control, dose response (AID 2122);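 note: confirmatory high-throughput counterscreen run to flag cytotoxic compounds; mouse MIN-6 beta cells carrying an insulin promoter eGFP reporter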
[6] = molecular target: Induced myeloid leukemia cell differentiation protein Mcl-1 (Homo sapiens, UniProt Q07820)
[7] = molecular target: Tyrosine-protein kinase JAK2 (Homo sapiens, UniProt O60674);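 note: JAK2 tested as one member of a kinase panel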
[8] = molecular target: Casein kinase II subunit alpha (Homo sapiens, UniProt P68400)
[9] = molecular target: Mitogen-activated protein kinase 9 (Homo sapiens, UniProt P45984);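 note: value from a kinome panel profiling assay, MAPK9 panel entry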
[10] = molecular target: Proto-oncogene tyrosine-protein kinase ROS (Homo sapiens, UniProt P08922);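 note: ROS1 tested as one member of a kinome-wide kinase panel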
[11] = molecular target: MAP/microtubule affinity-regulating kinase 3 (Homo sapiens, UniProt P27448);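 note: MARK3 affinity measured as one member of a kinome panel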
[12] = molecular target: Receptor-type tyrosine-protein kinase FLT3 (Homo sapiens, UniProt P36888);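 note: FLT3 was tested as one member of a kinome-wide kinase panel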
[13] = molecular target: G protein-coupled receptor kinase 5 (Homo sapiens, UniProt P34947); experiment: Navigating the Kinome. Panel member name: GPRK5
[14] = molecular target: Interleukin-1 receptor-associated kinase 1 (Homo sapiens, UniProt P51617);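 note: IRAK1 tested as one member of a kinome panel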
[15] = molecular target: Aurora kinase B (Homo sapiens, UniProt Q96GD4)
[16] = molecular target: Interleukin-1 receptor-associated kinase 4 (Homo sapiens, UniProt Q9NWZ3)
[17] = molecular target: Serine/threonine-protein kinase Nek2 (Homo sapiens, UniProt P51955)
[18] = molecular target: Calcium/calmodulin-dependent protein kinase type II subunit alpha (Homo sapiens, UniProt Q9UQM7); experiment: Navigating the Kinome. Panel member name: CAMK2A
[19] = molecular target: Tyrosine-protein kinase FRK (Homo sapiens, UniProt P42685);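 note: FRK tested as one member of a kinome panel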
[20] = molecular target: Serine/threonine-protein kinase 3 (Homo sapiens, UniProt Q13188);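 note: measured as one member of a kinome-wide kinase panel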

Sequence of Induced myeloid leukemia cell differentiation protein Mcl-1 (Q07820 whole entry): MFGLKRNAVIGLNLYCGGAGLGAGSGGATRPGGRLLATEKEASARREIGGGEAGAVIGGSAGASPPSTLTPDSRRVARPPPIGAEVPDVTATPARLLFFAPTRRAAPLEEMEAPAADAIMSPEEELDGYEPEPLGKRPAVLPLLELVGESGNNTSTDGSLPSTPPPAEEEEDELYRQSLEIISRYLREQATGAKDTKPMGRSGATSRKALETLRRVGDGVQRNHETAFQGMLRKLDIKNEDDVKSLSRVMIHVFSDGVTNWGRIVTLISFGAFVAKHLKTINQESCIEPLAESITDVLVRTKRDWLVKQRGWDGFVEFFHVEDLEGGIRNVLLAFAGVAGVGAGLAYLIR
Sequence of Tyrosine-protein kinase JAK2 (O60674 whole entry): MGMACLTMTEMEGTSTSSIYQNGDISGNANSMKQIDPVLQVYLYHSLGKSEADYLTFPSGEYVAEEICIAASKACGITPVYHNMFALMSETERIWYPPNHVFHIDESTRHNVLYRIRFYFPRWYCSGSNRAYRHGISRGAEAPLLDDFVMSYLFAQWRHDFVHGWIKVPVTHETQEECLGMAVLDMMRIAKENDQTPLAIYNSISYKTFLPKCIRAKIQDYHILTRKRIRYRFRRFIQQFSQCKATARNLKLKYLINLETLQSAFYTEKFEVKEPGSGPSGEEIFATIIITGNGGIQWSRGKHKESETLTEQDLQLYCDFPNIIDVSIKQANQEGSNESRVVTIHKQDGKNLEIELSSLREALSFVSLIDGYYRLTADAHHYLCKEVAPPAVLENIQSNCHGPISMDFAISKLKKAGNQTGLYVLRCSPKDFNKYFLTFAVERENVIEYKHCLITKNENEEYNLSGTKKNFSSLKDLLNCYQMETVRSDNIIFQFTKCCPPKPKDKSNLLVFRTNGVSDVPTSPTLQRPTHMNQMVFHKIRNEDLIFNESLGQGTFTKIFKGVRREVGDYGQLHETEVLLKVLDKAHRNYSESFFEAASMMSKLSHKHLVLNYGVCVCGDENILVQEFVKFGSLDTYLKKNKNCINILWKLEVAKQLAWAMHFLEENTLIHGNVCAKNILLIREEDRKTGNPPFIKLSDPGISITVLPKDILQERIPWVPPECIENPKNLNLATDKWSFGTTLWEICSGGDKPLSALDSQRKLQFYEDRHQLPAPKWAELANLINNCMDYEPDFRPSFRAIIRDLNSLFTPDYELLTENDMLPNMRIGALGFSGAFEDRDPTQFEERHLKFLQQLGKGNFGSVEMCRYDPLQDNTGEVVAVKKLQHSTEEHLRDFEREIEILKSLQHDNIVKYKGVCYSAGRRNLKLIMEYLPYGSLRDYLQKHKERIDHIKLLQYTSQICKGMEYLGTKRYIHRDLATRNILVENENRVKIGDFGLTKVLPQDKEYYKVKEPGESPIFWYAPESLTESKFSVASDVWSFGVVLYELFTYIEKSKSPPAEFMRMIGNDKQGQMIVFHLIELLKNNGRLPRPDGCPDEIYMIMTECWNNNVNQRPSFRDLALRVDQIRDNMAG
Sequence of Casein kinase II subunit alpha (P68400 whole entry): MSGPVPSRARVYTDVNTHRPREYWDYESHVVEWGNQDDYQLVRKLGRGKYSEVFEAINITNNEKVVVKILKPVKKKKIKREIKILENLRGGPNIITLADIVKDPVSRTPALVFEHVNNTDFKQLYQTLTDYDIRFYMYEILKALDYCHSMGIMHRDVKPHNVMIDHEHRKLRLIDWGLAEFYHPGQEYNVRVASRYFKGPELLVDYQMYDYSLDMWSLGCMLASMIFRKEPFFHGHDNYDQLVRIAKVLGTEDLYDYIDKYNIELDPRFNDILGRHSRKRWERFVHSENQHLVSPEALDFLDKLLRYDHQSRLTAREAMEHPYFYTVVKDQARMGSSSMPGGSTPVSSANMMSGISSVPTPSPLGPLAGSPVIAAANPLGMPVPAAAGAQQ
Sequence of Receptor-type tyrosine-protein kinase FLT3 (P36888 whole entry): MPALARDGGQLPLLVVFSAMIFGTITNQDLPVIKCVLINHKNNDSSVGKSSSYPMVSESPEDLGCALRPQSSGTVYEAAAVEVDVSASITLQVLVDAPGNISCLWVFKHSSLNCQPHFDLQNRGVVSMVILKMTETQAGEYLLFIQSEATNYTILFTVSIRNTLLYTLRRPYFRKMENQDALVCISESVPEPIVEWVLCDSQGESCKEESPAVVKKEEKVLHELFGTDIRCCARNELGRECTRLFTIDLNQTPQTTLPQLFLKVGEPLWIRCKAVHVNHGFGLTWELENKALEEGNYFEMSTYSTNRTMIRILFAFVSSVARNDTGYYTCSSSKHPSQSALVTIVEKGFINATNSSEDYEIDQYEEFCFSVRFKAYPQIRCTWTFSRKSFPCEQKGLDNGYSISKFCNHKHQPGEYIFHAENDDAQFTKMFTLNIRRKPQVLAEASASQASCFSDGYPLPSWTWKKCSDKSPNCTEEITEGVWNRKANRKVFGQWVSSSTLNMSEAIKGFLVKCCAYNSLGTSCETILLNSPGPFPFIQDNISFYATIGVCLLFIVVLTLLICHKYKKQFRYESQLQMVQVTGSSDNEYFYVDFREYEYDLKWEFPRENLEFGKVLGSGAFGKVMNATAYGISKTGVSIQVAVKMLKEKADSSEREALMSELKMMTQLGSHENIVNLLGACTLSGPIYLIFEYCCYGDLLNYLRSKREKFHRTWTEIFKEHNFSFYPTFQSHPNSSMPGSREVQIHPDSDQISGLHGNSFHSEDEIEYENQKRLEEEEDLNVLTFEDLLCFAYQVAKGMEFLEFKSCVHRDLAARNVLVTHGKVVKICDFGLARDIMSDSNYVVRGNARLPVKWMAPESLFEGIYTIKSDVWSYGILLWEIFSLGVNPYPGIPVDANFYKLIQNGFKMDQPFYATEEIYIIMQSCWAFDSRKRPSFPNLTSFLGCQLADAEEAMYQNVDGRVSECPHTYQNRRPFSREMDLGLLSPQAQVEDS
Sequence of MAP/microtubule affinity-regulating kinase 3 (P27448 whole entry): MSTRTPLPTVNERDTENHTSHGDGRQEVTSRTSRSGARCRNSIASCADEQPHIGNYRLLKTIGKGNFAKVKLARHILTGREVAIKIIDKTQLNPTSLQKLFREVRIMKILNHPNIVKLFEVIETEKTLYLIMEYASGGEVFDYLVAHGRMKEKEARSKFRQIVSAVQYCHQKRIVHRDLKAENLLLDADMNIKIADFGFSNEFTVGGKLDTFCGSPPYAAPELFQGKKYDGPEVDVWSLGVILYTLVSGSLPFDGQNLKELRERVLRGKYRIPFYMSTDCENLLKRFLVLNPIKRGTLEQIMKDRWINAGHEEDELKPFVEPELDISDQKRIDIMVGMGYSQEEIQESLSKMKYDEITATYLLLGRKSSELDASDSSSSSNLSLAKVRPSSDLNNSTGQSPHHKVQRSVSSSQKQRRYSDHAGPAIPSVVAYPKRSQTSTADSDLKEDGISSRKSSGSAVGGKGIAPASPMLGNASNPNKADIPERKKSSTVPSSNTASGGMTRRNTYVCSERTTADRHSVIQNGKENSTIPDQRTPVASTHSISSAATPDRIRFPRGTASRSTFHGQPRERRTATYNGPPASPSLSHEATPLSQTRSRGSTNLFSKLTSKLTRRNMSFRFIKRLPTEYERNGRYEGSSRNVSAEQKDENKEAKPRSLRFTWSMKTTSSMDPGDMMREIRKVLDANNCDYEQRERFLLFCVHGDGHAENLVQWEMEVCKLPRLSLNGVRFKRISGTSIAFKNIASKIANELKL
Sequence of Mitogen-activated protein kinase 9 (P45984 whole entry): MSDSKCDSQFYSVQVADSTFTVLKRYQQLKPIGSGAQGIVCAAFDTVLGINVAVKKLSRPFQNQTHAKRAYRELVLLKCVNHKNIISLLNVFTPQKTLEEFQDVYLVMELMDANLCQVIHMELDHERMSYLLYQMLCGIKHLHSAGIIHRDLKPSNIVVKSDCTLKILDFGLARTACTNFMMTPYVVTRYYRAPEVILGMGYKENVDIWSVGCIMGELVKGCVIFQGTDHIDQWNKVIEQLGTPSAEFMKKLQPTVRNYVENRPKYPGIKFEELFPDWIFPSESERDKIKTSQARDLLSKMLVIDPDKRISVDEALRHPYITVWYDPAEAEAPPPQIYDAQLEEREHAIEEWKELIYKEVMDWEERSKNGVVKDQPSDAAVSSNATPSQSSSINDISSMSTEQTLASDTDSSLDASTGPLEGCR
Sequence of G protein-coupled receptor kinase 5 (P34947 whole entry): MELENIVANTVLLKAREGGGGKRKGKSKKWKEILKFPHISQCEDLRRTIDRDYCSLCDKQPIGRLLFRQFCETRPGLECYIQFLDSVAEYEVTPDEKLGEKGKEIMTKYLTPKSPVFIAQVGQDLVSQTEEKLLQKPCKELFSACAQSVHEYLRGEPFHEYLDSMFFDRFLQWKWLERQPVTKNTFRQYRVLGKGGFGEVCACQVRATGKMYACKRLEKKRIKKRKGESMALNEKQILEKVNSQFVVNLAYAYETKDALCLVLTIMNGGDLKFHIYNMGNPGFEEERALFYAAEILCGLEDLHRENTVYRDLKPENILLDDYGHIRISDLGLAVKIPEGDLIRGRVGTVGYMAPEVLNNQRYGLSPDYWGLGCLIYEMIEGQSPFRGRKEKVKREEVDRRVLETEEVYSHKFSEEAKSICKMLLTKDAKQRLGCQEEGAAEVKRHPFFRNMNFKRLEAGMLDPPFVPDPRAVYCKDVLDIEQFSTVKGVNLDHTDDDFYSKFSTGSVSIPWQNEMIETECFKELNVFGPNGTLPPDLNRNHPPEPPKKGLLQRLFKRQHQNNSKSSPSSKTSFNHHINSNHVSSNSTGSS
Sequence of Aurora kinase B (Q96GD4 whole entry): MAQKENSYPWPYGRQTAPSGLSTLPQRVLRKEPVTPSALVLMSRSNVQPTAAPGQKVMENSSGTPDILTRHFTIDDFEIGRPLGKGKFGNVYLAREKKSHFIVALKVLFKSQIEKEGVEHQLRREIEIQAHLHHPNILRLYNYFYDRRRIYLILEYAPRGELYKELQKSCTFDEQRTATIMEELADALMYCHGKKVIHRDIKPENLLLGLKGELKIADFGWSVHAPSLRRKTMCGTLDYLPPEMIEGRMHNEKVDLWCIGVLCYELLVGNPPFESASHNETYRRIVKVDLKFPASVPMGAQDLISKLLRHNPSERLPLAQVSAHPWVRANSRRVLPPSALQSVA

## CCOC(=O)c1c(NS(=O)(=O)c2ccccc2)n(CCCOC)c2nc3ccccc3nc12
[1]
  IC50: 10 µM (active)
[2]
  IC50: 1.02 µM (active)
[3]
  IC50: 1.91 µM (active)

## O=C(COC(=O)c1ccc([N+](=O)[O-])s1)NCCc1ccccc1
[1]
  IC50: 9.7 µM (active)
[2]
  IC50: 7.56 µM (active)
[3]
  IC50: 4.74 µM (active)

## COCC/N=c1\scc(-c2cccs2)n1/N=C/c1ccc(O)c(O)c1O
[4]
  EC50: 19.3 µM (not active)
[5]
  IC50: > 16 µM (inactive)
[6]
  IC50: 5.17 µM (active)

## OC1CCC(Nc2cc(Cl)nc(-c3c[nH]c4ncccc34)n2)CC1 (stereo not drawn)
[7]
  Ki: 0.158 µM (active)
[8]
  Ki: 0.1 µM (active)
[9]
  Ki: 3.16 µM (active)
[10]
  Ki: 0.794 µM (active)
[11]
  Ki: 0.398 µM (active)
[12]
  Ki: 1 µM (active)
[13]
  Ki: > 3.98 µM (inactive)
[14]
  Ki: 1.26 µM (active)
[15]
  Ki: 0.316 µM (active)
[16]
  Ki: 0.316 µM (active)
[17]
  Ki: 3.98 µM (active)
[18]
  Ki: > 3.16 µM (inactive)
[19]
  Ki: 1 µM (active)
[20]
  Ki: 0.0501 µM (active)
